These are literature values, as cited in patent US6416998B1, “Plasmid encoding a modified steroid hormone” (Baylor College of Medicine, priority 1992, dated 2002).

Details in all cases: cited from earlier work
Data set [1] addresses T1, human progesterone receptor (Homo sapiens, UniProt P06401).
T1 sequence (P06401 1-933): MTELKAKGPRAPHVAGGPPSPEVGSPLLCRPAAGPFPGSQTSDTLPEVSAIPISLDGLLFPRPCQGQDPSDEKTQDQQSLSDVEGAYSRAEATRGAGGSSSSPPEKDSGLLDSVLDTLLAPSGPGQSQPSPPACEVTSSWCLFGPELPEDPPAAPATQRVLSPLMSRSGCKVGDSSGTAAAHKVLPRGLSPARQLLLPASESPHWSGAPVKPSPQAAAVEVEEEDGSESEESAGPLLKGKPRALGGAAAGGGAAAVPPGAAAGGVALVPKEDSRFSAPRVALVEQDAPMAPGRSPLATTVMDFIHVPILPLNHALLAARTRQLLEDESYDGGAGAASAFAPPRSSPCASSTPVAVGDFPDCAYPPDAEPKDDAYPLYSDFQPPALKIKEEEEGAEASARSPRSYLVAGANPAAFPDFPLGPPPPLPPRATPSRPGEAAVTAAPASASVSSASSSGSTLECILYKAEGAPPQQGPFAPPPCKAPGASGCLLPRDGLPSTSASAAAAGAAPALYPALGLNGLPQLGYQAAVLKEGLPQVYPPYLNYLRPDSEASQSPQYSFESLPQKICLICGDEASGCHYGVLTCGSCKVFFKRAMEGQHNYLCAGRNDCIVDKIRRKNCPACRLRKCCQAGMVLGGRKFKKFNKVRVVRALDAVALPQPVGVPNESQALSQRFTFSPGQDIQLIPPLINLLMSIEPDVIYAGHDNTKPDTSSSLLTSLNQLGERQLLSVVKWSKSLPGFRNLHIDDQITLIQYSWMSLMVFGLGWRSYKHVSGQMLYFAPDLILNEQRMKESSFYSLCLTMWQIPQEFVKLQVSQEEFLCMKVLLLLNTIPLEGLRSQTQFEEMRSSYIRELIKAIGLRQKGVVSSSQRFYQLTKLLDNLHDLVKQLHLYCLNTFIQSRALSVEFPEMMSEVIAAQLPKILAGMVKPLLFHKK

Data set [2] addresses T2, chicken progesterone receptor (Gallus gallus, UniProt P07812).
T2 sequence (P07812 1-786): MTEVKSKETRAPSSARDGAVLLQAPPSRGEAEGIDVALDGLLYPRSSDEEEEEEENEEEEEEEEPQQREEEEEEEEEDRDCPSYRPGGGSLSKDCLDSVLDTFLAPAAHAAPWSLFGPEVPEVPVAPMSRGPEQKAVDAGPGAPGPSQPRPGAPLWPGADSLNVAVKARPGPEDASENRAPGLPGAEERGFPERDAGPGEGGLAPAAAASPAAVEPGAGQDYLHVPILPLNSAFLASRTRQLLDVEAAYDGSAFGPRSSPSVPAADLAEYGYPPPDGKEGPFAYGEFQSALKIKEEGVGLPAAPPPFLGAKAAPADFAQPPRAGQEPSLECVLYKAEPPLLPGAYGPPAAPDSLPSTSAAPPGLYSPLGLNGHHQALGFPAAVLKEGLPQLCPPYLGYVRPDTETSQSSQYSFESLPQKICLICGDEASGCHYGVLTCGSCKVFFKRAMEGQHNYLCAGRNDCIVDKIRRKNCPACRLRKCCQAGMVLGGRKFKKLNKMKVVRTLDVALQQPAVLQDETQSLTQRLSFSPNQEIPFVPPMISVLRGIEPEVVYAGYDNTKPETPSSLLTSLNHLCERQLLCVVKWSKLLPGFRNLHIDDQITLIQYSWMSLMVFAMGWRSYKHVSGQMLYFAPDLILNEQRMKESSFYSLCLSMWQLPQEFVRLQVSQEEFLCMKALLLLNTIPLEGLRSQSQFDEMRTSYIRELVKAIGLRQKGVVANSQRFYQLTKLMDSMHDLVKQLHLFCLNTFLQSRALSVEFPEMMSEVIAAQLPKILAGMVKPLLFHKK

Data set [3] deals with T3, rat progesterone receptor (Rattus norvegicus, UniProt Q63449).
T3 sequence (Q63449 1-923): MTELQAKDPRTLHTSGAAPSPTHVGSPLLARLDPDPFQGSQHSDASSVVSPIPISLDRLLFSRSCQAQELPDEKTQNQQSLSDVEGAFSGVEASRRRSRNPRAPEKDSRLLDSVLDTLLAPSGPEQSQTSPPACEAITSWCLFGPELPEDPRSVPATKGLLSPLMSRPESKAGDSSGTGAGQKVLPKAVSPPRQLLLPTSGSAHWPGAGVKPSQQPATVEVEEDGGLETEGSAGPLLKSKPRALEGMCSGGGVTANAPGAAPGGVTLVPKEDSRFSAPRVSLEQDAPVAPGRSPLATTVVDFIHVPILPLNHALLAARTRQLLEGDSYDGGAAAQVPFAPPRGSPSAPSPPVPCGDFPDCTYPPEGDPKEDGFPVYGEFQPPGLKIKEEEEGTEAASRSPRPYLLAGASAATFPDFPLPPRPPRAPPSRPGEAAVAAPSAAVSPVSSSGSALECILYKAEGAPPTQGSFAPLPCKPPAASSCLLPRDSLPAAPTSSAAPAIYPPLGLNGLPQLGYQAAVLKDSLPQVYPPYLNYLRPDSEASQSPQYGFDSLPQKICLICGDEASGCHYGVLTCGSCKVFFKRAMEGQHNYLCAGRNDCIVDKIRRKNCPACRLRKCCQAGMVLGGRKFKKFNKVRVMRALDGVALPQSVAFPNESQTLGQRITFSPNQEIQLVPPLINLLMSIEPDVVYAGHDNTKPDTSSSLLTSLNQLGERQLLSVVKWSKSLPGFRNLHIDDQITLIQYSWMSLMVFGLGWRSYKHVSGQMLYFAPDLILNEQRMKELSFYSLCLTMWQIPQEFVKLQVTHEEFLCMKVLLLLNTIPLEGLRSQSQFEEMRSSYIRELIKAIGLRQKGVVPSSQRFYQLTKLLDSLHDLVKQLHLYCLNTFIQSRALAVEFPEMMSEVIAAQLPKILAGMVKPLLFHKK

The next data set concerns the target T4, Vitamin D receptor (Homo sapiens, UniProt P11473).
T4 sequence (P11473 1-427): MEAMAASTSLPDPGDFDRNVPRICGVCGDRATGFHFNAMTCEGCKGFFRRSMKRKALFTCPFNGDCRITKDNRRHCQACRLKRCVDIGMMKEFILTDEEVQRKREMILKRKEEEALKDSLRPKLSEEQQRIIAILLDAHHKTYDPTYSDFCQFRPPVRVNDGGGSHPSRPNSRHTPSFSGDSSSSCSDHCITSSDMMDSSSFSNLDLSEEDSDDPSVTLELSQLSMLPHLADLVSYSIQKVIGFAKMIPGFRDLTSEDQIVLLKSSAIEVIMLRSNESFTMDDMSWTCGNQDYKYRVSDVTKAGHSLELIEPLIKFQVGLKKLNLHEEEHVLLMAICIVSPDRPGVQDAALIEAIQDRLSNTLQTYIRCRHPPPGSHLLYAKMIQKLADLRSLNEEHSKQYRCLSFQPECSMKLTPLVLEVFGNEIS

`CC(=O)[C@H]1CC[C@H]2[C@@H]3CC[C@H]4CC(=O)CC[C@]4(C)[C@H]3CC[C@]12C` [5α-pregnane-3,20-dione]: the values for the binding entry in data set [1], in data set [2] and in data set [3] were “does not bind or binds very poorly”, “binds extremely well” and “binds extremely well”, respectively.

In the case of `C=C1CC[C@H](O)C/C1=C/C=C1\CCC[C@]2(C)[C@@H]([C@H](C)CCC(O)C(C)(C)O)CC[C@@H]12` (stereo partly shown) [24,25-dihydroxy-Vitamin D], the receptor activation result at Vitamin D receptor is on record as “does not”.
